The conditions of series [1]: for mass density: 293.15 K, 101.33 kPa, gas displacement; for Normal melting temperature / Triple point temperature: DTA.
Series [2] is described as follows: refractive index (Na D-line) (dimensionless); wn = mass fraction of the nth substance listed. The following applies: 293.15 K, 101 kPa, Liquid, Standard Abbe refractometry.
Series [3] is described as follows: refractive index (Na D-line) (dimensionless). To be noted: 293.15 K; 101.33 kPa; Liquid; Standard Abbe refractometry.

Numbers after ± are expanded uncertainties.

As for `CCCC[N+](CC)(CC)CC.F[P-](F)(F)(F)(F)F` [N,N,N-triethyl-N-butylammonium hexafluorophosphate], the mass density in series [1] (Crystal) was found to be 1366 ± 16 kg/m3. Moreover, the Normal melting temperature in series [1] (Crystal 1) was 178.90 ± 0.5 °C.
As for `CCCC[N+](CC)(CC)CC.F[P-](F)(F)(F)(F)F` [N,N,N-triethyl-N-butylammonium hexafluorophosphate] + O=S(=O)(O)C(F)(F)F, the refractive index in series [2] (w1 = 0.1) is recorded as 1.3405 ± 0.0052; in series [2] (w1 = 0.2) it was 1.3522 ± 0.0052; in series [2] (w1 = 0.3), 1.3632 ± 0.0051; in series [2] (w1 = 0.4), 1.3745 ± 0.0051; in series [2] (w1 = 0.5), 1.3786 ± 0.005; in series [2] (w1 = 0.6), 1.3782 ± 0.005.
For the compound `CCCC[N+](CC)(CC)CC.F[B-](F)(F)F` [N,N,N-triethyl-N-butylammonium tetrafluoroborate], in series [1] (Crystal 2), the mass density is 1140 ± 16 kg/m3 and the Triple point temperature amounted to 305.85 ± 0.5 K. In addition, in series [1] (Crystal 1), the Normal melting temperature came to 161.90 ± 0.5 °C.
For `CCCC[N+](CC)(CC)CC.F[B-](F)(F)F` [N,N,N-triethyl-N-butylammonium tetrafluoroborate] + O=S(=O)(O)C(F)(F)F, the refractive index in series [2] (w1 = 0.1) is reported as 1.3451 ± 0.0052; in series [2] (w1 = 0.2), 1.3543 ± 0.0051; in series [2] (w1 = 0.3), 1.3636 ± 0.0051; in series [2] (w1 = 0.4), 1.3698 ± 0.0051; in series [2] (w1 = 0.5), 1.3771 ± 0.0051; in series [2] (w1 = 0.6) it was 1.3857 ± 0.0051.
As for `CCCCCC[N+](CC)(CC)CC.[F][Sb-]([F])([F])([F])([F])[F]` [N,N,N-triethyl-N-hexylammonium hexafluoroantimonate], in series [1] (Crystal), the mass density is reported as 1488 ± 16 kg/m3 and the Normal melting temperature amounted to 174.00 ± 0.5 °C.
Regarding `CCCCCC[N+](CC)(CC)CC.[F][Sb-]([F])([F])([F])([F])[F]` [N,N,N-triethyl-N-hexylammonium hexafluoroantimonate] + O=S(=O)(O)C(F)(F)F, the refractive index in series [2] (w1 = 0.1) amounted to 1.3381 ± 0.0051; in series [2] (w1 = 0.2) it was 1.3462 ± 0.0051; in series [2] (w1 = 0.3), 1.3563 ± 0.0051; in series [2] (w1 = 0.4), 1.3628 ± 0.0051; in series [2] (w1 = 0.5), 1.3722 ± 0.0051; in series [2] (w1 = 0.6), 1.3809 ± 0.0051.
For `CCCCCC[N+](CC)(CC)CC.F[P-](F)(F)(F)(F)F` [N,N,N-triethyl-N-hexylammonium hexafluorophosphate], in series [1] (Crystal), the mass density is given as 1351 ± 16 kg/m3 and the Normal melting temperature came out at 161.60 ± 0.5 °C.
As to `CCCCCC[N+](CC)(CC)CC.F[P-](F)(F)(F)(F)F` [N,N,N-triethyl-N-hexylammonium hexafluorophosphate] + O=S(=O)(O)C(F)(F)F, the refractive index came to 1.3421 ± 0.0052 in series [2] (w1 = 0.1), 1.3549 ± 0.0052 in series [2] (w1 = 0.2), 1.3667 ± 0.0051 in series [2] (w1 = 0.3) and 1.3762 ± 0.0051 in series [2] (w1 = 0.4).
`CCCCCC[N+](CC)(CC)CC.F[B-](F)(F)F` [N,N,N-triethyl-N-hexylammonium tetrafluoroborate]: in series [1] (Crystal), the mass density worked out at 1094 ± 16 kg/m3 and the Normal melting temperature stood at 88.20 ± 0.5 °C.
As for `CCCCCC[N+](CC)(CC)CC.F[B-](F)(F)F` [N,N,N-triethyl-N-hexylammonium tetrafluoroborate] + O=S(=O)(O)C(F)(F)F, the refractive index is on record as 1.3475 ± 0.0052 in series [2] (w1 = 0.1); 1.3572 ± 0.0051 in series [2] (w1 = 0.2); 1.3654 ± 0.0051 in series [2] (w1 = 0.3); 1.3728 ± 0.0051 in series [2] (w1 = 0.4); 1.3782 ± 0.0051 in series [2] (w1 = 0.5).
With `CCCCCCCC[N+](CC)(CC)CC.F[P-](F)(F)(F)(F)F` [N,N,N-triethyl-N-octylammonium hexafluorophosphate], in series [1] (Crystal 2), the mass density is reported as 1190 ± 16 kg/m3 and the Triple point temperature is on record as 311.65 ± 0.5 K. Moreover, in series [1] (Crystal 1), the Normal melting temperature is 88.30 ± 0.5 °C.
As to `CCCCCCCC[N+](CC)(CC)CC.F[P-](F)(F)(F)(F)F` [N,N,N-triethyl-N-octylammonium hexafluorophosphate] + O=S(=O)(O)C(F)(F)F, the refractive index in series [2] (w1 = 0.1) is on record as 1.3427 ± 0.0052; in series [2] (w1 = 0.2), 1.3562 ± 0.0052; in series [2] (w1 = 0.3), 1.3681 ± 0.0051; in series [2] (w1 = 0.4), 1.3781 ± 0.0051; in series [2] (w1 = 0.5), 1.3875 ± 0.0051.
With `CCCCCCCC[N+](CC)(CC)CC.F[B-](F)(F)F` [N,N,N-triethyl-N-octylammonium tetrafluoroborate], in series [1] (Crystal), the mass density is reported as 1065 ± 16 kg/m3 and the Normal melting temperature is 101.40 ± 0.5 °C.
As for `CCCCCCCC[N+](CC)(CC)CC.F[B-](F)(F)F` [N,N,N-triethyl-N-octylammonium tetrafluoroborate] + O=S(=O)(O)C(F)(F)F, the refractive index in series [2] (w1 = 0.1) was 1.3493 ± 0.0052; in series [2] (w1 = 0.2), 1.3583 ± 0.0051; in series [2] (w1 = 0.3), 1.3672 ± 0.0051; in series [2] (w1 = 0.4), 1.3745 ± 0.0051; in series [2] (w1 = 0.5), 1.3811 ± 0.0051.
Turning to `O=S(=O)(O)C(F)(F)F` [methanesulfonic acid, trifluoro-], the refractive index in series [3] was 1.3292 ± 0.005.
In the case of `O=S(=O)(O)C(F)(F)F` [methanesulfonic acid, trifluoro-] + CCCCCCCC[N+](CC)(CC)CC.F[B-](F)(F)F, the refractive index in series [2] (w2 = 0) is 1.3292 ± 0.005.
As to `O=S(=O)(O)C(F)(F)F` [methanesulfonic acid, trifluoro-] + CCCCCCCC[N+](CC)(CC)CC.F[P-](F)(F)(F)(F)F, the refractive index in series [2] (w2 = 0) was 1.3292 ± 0.005.
Turning to `O=S(=O)(O)C(F)(F)F` [methanesulfonic acid, trifluoro-] + CCCCCC[N+](CC)(CC)CC.F[B-](F)(F)F, the refractive index in series [2] (w2 = 0) was determined as 1.3292 ± 0.005.
For `O=S(=O)(O)C(F)(F)F` [methanesulfonic acid, trifluoro-] + CCCCCC[N+](CC)(CC)CC.F[P-](F)(F)(F)(F)F, the refractive index in series [2] (w2 = 0) came out at 1.3292 ± 0.005.
`O=S(=O)(O)C(F)(F)F` [methanesulfonic acid, trifluoro-] + CCCCCC[N+](CC)(CC)CC.[F][Sb-]([F])([F])([F])([F])[F]: the refractive index in series [2] (w2 = 0) amounted to 1.3292 ± 0.005.
For the compound `O=S(=O)(O)C(F)(F)F` [methanesulfonic acid, trifluoro-] + CCCC[N+](CC)(CC)CC.F[B-](F)(F)F, the refractive index in series [2] (w2 = 0) is 1.3292 ± 0.005.
For the compound `O=S(=O)(O)C(F)(F)F` [methanesulfonic acid, trifluoro-] + CCCC[N+](CC)(CC)CC.F[P-](F)(F)(F)(F)F, in series [2] (w2 = 0), the refractive index is listed as 1.3292 ± 0.005.
As for `O=S(=O)(O)C(F)(F)F` [methanesulfonic acid, trifluoro-] + CC[N+](CC)(CC)CC.F[B-](F)(F)F, in series [2] (w2 = 0), the refractive index was found to be 1.3292 ± 0.005.
Take `O=S(=O)(O)C(F)(F)F` [methanesulfonic acid, trifluoro-] + CC[N+](CC)(CC)CC.F[P-](F)(F)(F)(F)F: the refractive index in series [2] (w2 = 0) amounted to 1.3292 ± 0.005.
Regarding `O=S(=O)(O)C(F)(F)F` [methanesulfonic acid, trifluoro-] + CC[N+](CC)(CC)CC.[F][Sb-]([F])([F])([F])([F])[F], the refractive index in series [2] (w2 = 0) came to 1.3292 ± 0.005.
On to `CC[N+](CC)(CC)CC.[F][Sb-]([F])([F])([F])([F])[F]` [tetraethylammonium hexafluoroantimonate], for which, in series [1] (Liquid), the mass density is 1715 ± 16 kg/m3.
As for `CC[N+](CC)(CC)CC.[F][Sb-]([F])([F])([F])([F])[F]` [tetraethylammonium hexafluoroantimonate] + O=S(=O)(O)C(F)(F)F, the refractive index is on record as 1.3349 ± 0.0051 in series [2] (w1 = 0.1); 1.3408 ± 0.0051 in series [2] (w1 = 0.2); 1.3498 ± 0.0051 in series [2] (w1 = 0.3); 1.3571 ± 0.0051 in series [2] (w1 = 0.4); 1.3641 ± 0.0051 in series [2] (w1 = 0.5); 1.3678 ± 0.005 in series [2] (w1 = 0.6).
For the compound `CC[N+](CC)(CC)CC.F[P-](F)(F)(F)(F)F` [tetraethylammonium hexafluorophosphate], in series [1] (Crystal), the mass density is 1440 ± 16 kg/m3 and the Normal melting temperature is 77.10 ± 0.5 °C.
On to `CC[N+](CC)(CC)CC.F[P-](F)(F)(F)(F)F` [tetraethylammonium hexafluorophosphate] + O=S(=O)(O)C(F)(F)F, for which the refractive index came out at 1.3398 ± 0.0051 in series [2] (w1 = 0.1), 1.3499 ± 0.0051 in series [2] (w1 = 0.2), 1.3602 ± 0.0051 in series [2] (w1 = 0.3) and 1.3691 ± 0.0051 in series [2] (w1 = 0.4).
`CC[N+](CC)(CC)CC.F[B-](F)(F)F` [tetraethylammonium tetrafluoroborate]: in series [1] (Crystal), the mass density came to 1220 ± 16 kg/m3 and the Normal melting temperature was 71.40 ± 0.5 °C.
Consider `CC[N+](CC)(CC)CC.F[B-](F)(F)F` [tetraethylammonium tetrafluoroborate] + O=S(=O)(O)C(F)(F)F, for which the refractive index in series [2] (w1 = 0.1) is 1.3421 ± 0.0051; in series [2] (w1 = 0.2) it was 1.3512 ± 0.0051; in series [2] (w1 = 0.3), 1.3601 ± 0.0051; in series [2] (w1 = 0.4), 1.3656 ± 0.0051; in series [2] (w1 = 0.5), 1.3732 ± 0.0051.

Values taken from the NIST ThermoML archive (doi:10.1021/je300993n).
